{
  "source": "patent US8314150B2",
  "about": "“Kinase protein binding inhibitors” (priority 2008, dated 2012)",
  "key": {"BT474 cells": {"tested_on": "BT474 cells", "assay": "Cell adhesion assay on collagen-coated plates, BT474", "type": "cell-based", "method": "(§1) Cell Viability Assay—The Cells were treated with peptides for 24 hours at different peptide concentrations. The 3-(4,5-dimethylthiazol-2-yl)-5-(3-carboxymethoxyphenyl)-2-(4-sulfophenyl)-2H-tetrazolium compound from Promega Viability kit (Madison, Ill.) was added, and the cells were incubated at 37° C. for 1-2 hours. The optical density on 96-plate was analyzed with a microplate reader at 490 nm to determine cell viability. In addition, cells were stained with trypan blue after 24 hours of treatment with Y15 and the percent of cells that stained positive were determined with a hemacytometer. […] Then 2% SDS was added to the dried plated and OD at 590 nm was measured for detecting cell adhesion. […] Protein concentrations were determined using a Bio-Rad Kit. The boiled samples were loaded on Ready SDS-10% PAGE gels (Bio Rad, Inc) and used for Western blot analysis with the protein-specific antibody. […] Detachment Assay—Cells were plated with and without inhibitors for 24 hours, and detached and attached cells were counted in a hemocytometer. We calculated the percent of detachment by dividing the number of detached cells by the total number of cells. The percent of detached cells was calculated in three independent experiments. […] For each experiment 300 cells per treatment were counted. […]"}, "Miapaca-2 cells": {"tested_on": "Miapaca-2 cells", "assay": "Detachment assay, Miapaca-2", "type": "cell-based, human", "method": "as §1"}, "[1]": {"tested_on": "tumor associated fibroblasts", "assay": "Trypan blue staining, tumor associated fibroblasts", "type": "cell-based", "details": "increasing doses, 24 hours", "method": "as §1"}, "ERK1/2 phosphorylation": {"tested_on": "ERK1/2 phosphorylation", "assay": "ERK1/2 phosphorylation in pancreatic cancer cells", "type": "cell-based, human", "details": "dose dependent", "method": "as §1"}, "[2]": {"assay": "Tolerability in nude mice in tumor growth inhibition experiments", "type": "in vivo", "method": "as §1"}, "Y397-FAK phosphorylation": {"tested_on": "Y397-FAK phosphorylation", "assay": "Y397-FAK levels in BT474 tumors (Western blotting, immunohistochemistry)", "type": "in vivo", "details": "30 mg/kg, vs untreated mice", "method": "as §1"}},
  "data": [
    {"smiles": "Cl.Cl.Cl.Cl.Nc1cc(N)c(N)cc1N", "note": "[Y15, 1,2,4,5-benzenetetraamine tetrahydrochloride]", "values": [
      {"measurement": "cell adhesion", "setting": "BT474 cells; 100 μM", "value": "significantly inhibited cell adhesion as TAE-226"},
      {"measurement": "dose from which cell adhesion was significantly decreased", "setting": "BT474 cells; collagen-coated plates", "value": 50, "unit": "µM"},
      {"measurement": "dose from which detachment was significant", "setting": "Miapaca-2 cells", "value": 3, "unit": "µM"},
      {"measurement": "cell viability (trypan blue)", "setting": "[1]", "value": "no significant decrease in viability"},
      {"measurement": "p-ERK", "setting": "ERK1/2 phosphorylation", "value": "down regulated"},
      {"measurement": "optimal non-toxic dose", "setting": "[2]; IP, nude mice", "value": 30, "unit": "mg/kg"},
      {"measurement": "animal weight loss or death", "setting": "[2]; intraperitoneal 30 mg/kg, 5 days/week, 36 days", "value": "No animal weight loss or death was observed"},
      {"measurement": "Y397-FAK phosphorylation in tumors", "setting": "Y397-FAK phosphorylation", "value": "less Y397-FAK phosphorylation"},
      {"measurement": "total FAK levels in tumors", "setting": "Y397-FAK phosphorylation", "value": "the same"}
    ]}
  ]
}
